Source: PMC3906526 (Archives of Pharmacal Research, 2013)

target: c-Kit (Homo sapiens, UniProt P10721); assay: AlphaBead; format: biochemical
Sequence (P10721 544-976): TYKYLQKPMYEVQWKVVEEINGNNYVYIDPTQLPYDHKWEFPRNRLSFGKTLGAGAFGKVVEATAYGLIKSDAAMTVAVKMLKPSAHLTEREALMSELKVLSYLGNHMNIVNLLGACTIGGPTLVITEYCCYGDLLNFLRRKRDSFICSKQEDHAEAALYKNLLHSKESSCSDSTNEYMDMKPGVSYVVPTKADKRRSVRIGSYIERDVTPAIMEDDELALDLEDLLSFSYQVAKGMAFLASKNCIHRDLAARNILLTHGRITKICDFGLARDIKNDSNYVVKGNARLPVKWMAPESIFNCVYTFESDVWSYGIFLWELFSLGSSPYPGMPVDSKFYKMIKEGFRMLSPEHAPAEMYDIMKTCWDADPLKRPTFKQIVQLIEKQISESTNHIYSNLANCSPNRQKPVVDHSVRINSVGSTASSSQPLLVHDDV

IC50 [µM] | SMILES
13.3 | COc1ccc(-c2cc(=O)c3c(O)cc(O)cc3o2)cc1 [Y1, acacetin]
4.7 | O=c1cc(-c2ccc(O)cc2)oc2cc(O)cc(O)c12 [Y3, apigenin]

SMILES | IC50 [µM]
O=c1cc(-c2ccc(O)c(O)c2)oc2cc(O)cc(O)c12 [Y4, luteolin] | 1
